Earlier results as cited in patent US20060275215A1, “Novel imaging agents” (priority 2003, published 2006).

Legend:
caspase-3 = target: T1, caspase-3 (Homo sapiens, UniProt P42574)
T1 sequence (P42574 29-175 limits assumed): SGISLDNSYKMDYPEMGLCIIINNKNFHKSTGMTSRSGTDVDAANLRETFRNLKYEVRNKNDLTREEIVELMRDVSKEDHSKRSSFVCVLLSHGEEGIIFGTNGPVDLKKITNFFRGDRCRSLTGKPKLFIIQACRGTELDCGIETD
T1 sequence (P42574 176-277 limits assumed): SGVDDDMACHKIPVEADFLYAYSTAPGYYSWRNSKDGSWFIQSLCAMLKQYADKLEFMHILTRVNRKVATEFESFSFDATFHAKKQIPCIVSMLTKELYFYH

[1] = tested on: phosphatidylserine (PS) on the outer membrane of apoptotic cells; details: binding to phosphatidylserine on outer membrane of apoptotic cells; read-out: affinity
[2] = labelled with the radioisotope 131I

| Compound | IC50 for caspase-3 (caspase-3) | other results |
| --- | --- | --- |
| CCOc1ccc(OCC(=O)O)cc1CC(=O)NC(C(=O)NC(CC(=O)O)C(=O)CSCc1c(F)cccc1Cl)C(C)C (stereo not drawn) [6A′] | low nanomolar range | – |
| CCOc1ccc(OCC(=O)OC)cc1CC(=O)NC(C(=O)NC(CC(=O)O)C(=O)CSCc1c(F)cccc1Cl)C(C)C (stereo not drawn) [Compound 6A] | low nanomolar range | – |
| CCOc1ccc(OCC(=O)OC(C)C)cc1CC(=O)NC(C(=O)NC(CC(=O)O)C(=O)CSCc1c(F)cccc1Cl)C(C)C (stereo not drawn) [Compound 6B] | low nanomolar range | – |
| CCOc1ccc(S(C)(=O)=O)cc1CC(=O)NC(C(=O)NC(CC(=O)O)C(=O)CSCc1c(F)cccc1Cl)C(C)C (stereo not drawn) [Compound 6C] | low nanomolar range | – |
| Annexin-5: endogenous human protein (RMM 36 kDa) which binds to phosphatidylserine | – | Kd [1]: ~1 nM |
| benzyloxycarbonyl-Val-Ala-DL-Asp(O-methyl)-fluoromethylketone [Z-VAD-fmk] | – | absolute cellular uptake [2]: low |
